tested on: shy1Δ knockout mutants; experiment: Yeast drug repurposing screen, shy1Δ knockout mutants (haploid/diploid not separated); type: cell-based; conditions: FIG. 12, inactive statins; test not named
Excerpt: An aim of the present disclosure is to identify SURF1 Leigh Syndrome drug repurposing clinical candidates using a rapid turnaround, multi-species phenotypic screening approach that starts with the development and phenotypic characterization of genetically personalized yeast strains—“patient avatars”—and culminates in a drug repurposing screen, a process previously published for PMM2-CDG in Lao et al., 2019 Feb 7; 9(2):413423. […] Slow growth can be rescued in a pathway-agnostic high-throughput chemical suppressor screen. As in the case of PMM2-CDG, the SURF1 yeast ortholog, gene identifier SHY1, is essential undergrowth conditions that require functional mitochondria, i.e., respiration. The yeast species Yarrowia lipolytica was used for the screen since it is an obligate aerobe (requires oxygen to grow), contains a fully functional electron transport chain, and has already been prototyped in a drug repurposing screen (Perlstein 2020). A 384-well-plate growth-based assay with appropriate positive and negative controls was designed and optimized for a drug repurposing screen (~5,000 compounds). The drug repurposing screen for mitochondrial diseases involving complex IV deficiency is described herein. A general yeast screening method was discussed in Perlstein, Drug repurposing for mitochondrial diseases using a pharmacological model of complex I deficiency in the yeast Yarrowia lipolytica, bioRxiv, (2020), see https://www.biorxiv.org/content/10.1101/2020.01.08.899666v1.
Yeast cells completely lacking SURF1 are unable to grow in conditions that require their mitochondria to produce energy. Knocking out the SURF1 ortholog in yeast—SHY1—results in loss of the ability of the knockout mutant to grow on a non-fermentable carbon source, e.g., lactate or glycerol, that requires functional mitochondria. A shy1Δ knockout mutant is incapable of growing on YEPG, or yeast media spiked with ethanol and glycerol as the sole non-fermentable carbon sources.
A unique hit signature was identified using the pilot screen of ~2,500 known drugs. A drug repurposing screen was performed. BY4741 and BY4742 are wildtype haploid controls, BY4743 is the wildtype diploid control. PY14 and PY15 are haploid shy1Δ knockout mutants of each yeast mating type. PY16 is the diploid SHY1/shy1Δ heterozygous mutant, which grows just like BY4743. PY17 is the diploid homozygous shy1Δ knockout mutant. FIG. 20.
FIG. 22, FIG. 23, FIG. 24A, FIG. 24B. It is thought that the hits act by stabilizing cytochrome c oxidase.
The discernible red triangles are the hits; the larger the triangles, the more statistically significant the result. […] FIG. 25A and FIG. 25B. Haploid and diploid SURF1 deficient mutants were screened. The positive control is a wildtype (unmutated) yeast strain. […]

Q: For `CC[C@H](C)C(=O)O[C@H]1C[C@@H](C)C=C2C=C[C@H](C)[C@H](CC[C@@H]3C[C@@H](O)CC(=O)O3)[C@H]21` [lovastatin], which activity of statins is on record?
A: inactive

Q: How did the activity of statins turn out when `CCC(C)(C)C(=O)O[C@H]1C[C@@H](C)C=C2C=C[C@H](C)[C@H](CC[C@@H]3C[C@@H](O)CC(=O)O3)[C@H]21` [simvastatin] was run?
A: inactive

Q: How did the activity of statins turn out when `CC[C@H](C)C(=O)O[C@H]1C[C@H](O)C=C2C=C[C@H](C)[C@H](CC[C@@H](O)C[C@@H](O)CC(=O)O)[C@H]21` [pravastatin] was run?
A: inactive

Q: Which activity of statins does the source give for `CC[C@H](C)C(=O)O[C@H]1CCC=C2C=C[C@H](C)[C@H](CC[C@@H]3C[C@@H](O)CC(=O)O3)[C@H]21` [mevastatin] here?
A: inactive
